Assay results published in US8685924B2, “Preventives/remedies for stress urinary incontinence and method of screening the same” (Takeda Pharmaceutical Company Limited, priority 2004, dated 2014).

Experiments:
[1] = tested on: urethane-anesthetized female rats; experiment: Antagonism of the leak point pressure increase by WAY-161503 / WAY-163909, abdominal wall-electrically stimulating method (Example 3); type: in vivo, rat; settings: for leak point pressure after drug administration / leak point pressure increase / leak point pressure before drug administration: i.v., mean ± SEM; for leak point pressure before drug administration: baseline
Protocol: SD female rats (body weight 180-350 g) were anesthetized with urethane (Wako Pure Chemical Industries, Ltd.), and the spinal cord was transected at T8-9 level to eliminate the reflex voiding. In addition, the nerve to the iliococcygeus muscle/pubococcygeus muscle on the one side was transected. During operation, halothane (Takeda Pharmaceutical Company Limited) anesthesia was added when necessary. A catheter (PE-90, Clay Adams) was inserted into the bladder and secured with a ligature, and the incised part of each of the abdominal muscle and skin was closed with sutures. The abdominal skin near the diaphragm was incised at two left and right positions to newly expose the abdominal muscle. An Evans Blue dye (Merck) solution was injected into the bladder, and the bladder volume was adjusted to 0.2-0.3 ml. The bladder catheter was connected to a pressure transducer, and the signals of the transducer were sent to a computer via an amplifier (blood pressure amplification unit AP-641G; NIHON KOHDEN) and an analog-to-digital converter (BIOPAC; MP100), and recorded on a hard disc. The data were analyzed on a computer using software (BIOPAC; AcqKnowledge). The exposed abdominal muscle was electrostimulated using an electrostimulator (SEN-3301; NIHON KODEN) and an isolator (SS-202J; NIHON KODEN), and the presence or absence of incontinence from the meatus urethra was observed. The electrostimulation was applied at a voltage of 2.5-50 V, duration of 0.5 milisec, and frequency 50 Hz for 1 sec, thereby gradually increasing the intravesical pressure. The peak intravesical pressure during stimulation of the abdominal wall was measured and, of the trials with observed incontinence, the lowest peak intravesical pressure was defined as the leak point pressure. Serotonin 5-HT receptor agonist, WAY-161503 (5-HT2C receptor agonist), WAY-163909 (5-HT2C receptor agonist), DOI (5-HT2A/2B/2C receptor agonist), mCPP (5-HT2B/2C receptor partial agonist), eltoprazine (5-HT1A/1B/2C receptor partial agonist), 8-OH-DPAT (5-HT1A receptor agonist), sumatryptan (5-HT1B/1D receptor agonist) and BW723C86 (5-HT2B receptor agonist) were intravenously administered, and the leak point pressure was compared before and after the administration. DOI, mCPP and eltoprazine were dissolved in saline, and other drugs were dissolved in DMA/PEG400 (1:1), and they were intravenously administered at 1 ml/kg and 0.5 mg/kg, respectively. Depending on the experiment, RS-102221 (serotonin 5-HT2C receptor antagonist) or SB221284 (serotonin 5-HT2B/2C receptor antagonist) was intravenously administered 5 min before WAY-161503 or WAY-163909 administration, and an antagonistic effect against the WAY-161503 or WAY-163909-induced increment of the leak point pressure was examined. RS-102221 and SB221284 were both dissolved in DMA/PEG400 (1:1) and intravenously administered at 0.5 ml/kg.

[2] = tested on: urethane-anesthetized female rats; experiment: Antagonism of the leak point pressure increase by WAY-161503 / WAY-163909, direct bladder compression method (Example 4); type: in vivo, rat; settings: for leak point pressure after drug administration / leak point pressure increase / leak point pressure before drug administration: i.v., mean ± SEM; for leak point pressure before drug administration: baseline
Protocol: SD female rats (body weight 180-350 g) were anesthetized with urethane (Wako Pure Chemical Industries, Ltd.), and halothane (Takeda Pharmaceutical Company Limited) anesthesia was added when necessary during operation.
The spinal cord was transected at T8-9 level to eliminate the reflex voiding. The lower abdomen was incised in the median line, a catheter for intravesical pressure measurement (PE-90, Clay Adams) was inserted into the bladder and secured with a ligature, and the intravesical pressure was measured via a pressure transducer. Urine was emptized in advance by bilaterally pressing the bladder with two swabs, and a 0.1% Evans blue (Merck) solution (0.4 mL) was injected into the bladder. The bladder was gradually compressed bilaterally with two swabs, and the intravesical pressure upon saline leakage from the urethral orifice was measured and defined as a leak point pressure. The measurement of the leak point pressure was repeated, and the average value of the final five stable measures was taken as the value before drug administration. Thereafter, the drug was intravenously administered, the leak point pressure was measured again 20 min later, and the value after the drug administration was determined. DOI, mCPP and eltoprazine were dissolved in saline, and other drugs were dissolved in DMA/PEG400 (1:1), and intravenously administered at 1 ml/kg and 0.5 mg/kg, respectively. Depending on the experiment, RS-102221 or SB221284 (showing serotonin 5-HT2C receptor antagonist activity) was administered, 5 min later, WAY-161503 or WAY-163909 was administered, leak point pressure was measured 10 min later, and a competitive assay with the action of WAY-161503 or WAY-163909 was performed. RS-102221 and SB221284 were both dissolved in DMA/PEG400 (1:1), and intravenously administered at 0.5 ml/kg.

[3] = antagonist 1 mg/kg, i.v. 5 min before WAY-161503 0.3 mg/kg
[4] = antagonist 3 mg/kg, i.v. 5 min before WAY-161503 0.3 mg/kg
[5] = antagonist 3 mg/kg, i.v. 5 min before WAY-163909 0.3 mg/kg
[6] = antagonist 1 mg/kg, i.v. + WAY-161503 0.3 mg/kg
[7] = antagonist 3 mg/kg, i.v. + WAY-161503 0.3 mg/kg
[8] = antagonist 3 mg/kg, i.v. + WAY-163909 0.3 mg/kg
[9] = antagonist 1 mg/kg, i.v. 5 min before WAY-163909 0.3 mg/kg
[10] = antagonist alone 3 mg/kg, agonist: solvent, WAY-161503 series
[11] = antagonist alone 3 mg/kg, agonist: solvent, WAY-163909 series
[12] = intravenous, against WAY-163909
[13] = antagonist 0.1 mg/kg, i.v. 5 min before WAY-161503 0.3 mg/kg
[14] = antagonist 0.3 mg/kg, i.v. 5 min before WAY-161503 0.3 mg/kg
[15] = antagonist 0.1 mg/kg, i.v. 5 min before WAY-163909 0.3 mg/kg
[16] = antagonist 0.3 mg/kg, i.v. 5 min before WAY-163909 0.3 mg/kg
[17] = antagonist alone 0.3 mg/kg, agonist: solvent, WAY-163909 series

SMILES: COc1cc(OC)c(C(=O)CCCCN2CCC3(CC2)NC(=O)NC3=O)cc1NS(=O)(=O)c1ccc(C(F)(F)F)cc1 [RS102221]
- leak point pressure after drug administration [1, 3]: 68.5 ± 6.1 cmH2O
- leak point pressure increase [1, 3]: 20.2 ± 4.1 cmH2O
- leak point pressure after drug administration [1, 4]: 50.0 ± 6.3 cmH2O
- leak point pressure increase [1, 4]: 9.7 ± 2.1 cmH2O
- leak point pressure after drug administration [1, 5]: 53.0 ± 7.0 cmH2O
- leak point pressure increase [1, 5]: 6.5 ± 2.4 cmH2O
- leak point pressure before drug administration [1, 6]: 48.3 ± 7.5 cmH2O
- leak point pressure before drug administration [1, 7]: 40.3 ± 5.5 cmH2O
- leak point pressure before drug administration [1, 8]: 46.5 ± 5.9 cmH2O
- dose at which suppression of the leak point pressure increase was significant ([1]; intravenous, against WAY-161503 (0.3 mg/kg, i.v.) or WAY-163909 (0.3 mg/kg, i.v.)): 3 mg/kg
- leak point pressure after drug administration [2, 3]: 67.5 ± 5.4 cmH2O
- leak point pressure increase [2, 3]: 12.8 ± 1.9 cmH2O
- leak point pressure after drug administration [2, 9]: 74.1 ± 3.4 cmH2O
- leak point pressure increase [2, 9]: 11.6 ± 2.4 cmH2O
- leak point pressure after drug administration [2, 4]: 70.5 ± 1.8 cmH2O
- leak point pressure increase [2, 4]: 9.8 ± 2.7 cmH2O
- leak point pressure after drug administration [2, 5]: 70.9 ± 3.0 cmH2O
- leak point pressure increase [2, 5]: 7.4 ± 1.4 cmH2O
- leak point pressure after drug administration [2, 10]: 60.7 ± 6.2 cmH2O
- leak point pressure increase [2, 10]: 3.8 ± 1.9 cmH2O
- leak point pressure after drug administration [2, 11]: 59.2 ± 6.6 cmH2O
- leak point pressure increase [2, 11]: −0.2 ± 2.1 cmH2O
- leak point pressure before drug administration [2, 6]: 54.7 ± 6.1 cmH2O
- leak point pressure before drug administration ([2]; antagonist 1 mg/kg, i.v. + WAY-163909 0.3 mg/kg): 62.5 ± 3.1 cmH2O
- leak point pressure before drug administration [2, 7]: 60.7 ± 3.3 cmH2O
- leak point pressure before drug administration [2, 8]: 63.6 ± 3.3 cmH2O
- leak point pressure before drug administration [2, 10]: 56.8 ± 5.5 cmH2O
- leak point pressure before drug administration [2, 11]: 59.4 ± 7.0 cmH2O
- dose at which suppression of the leak point pressure increase was significant ([2]; intravenous, against WAY-161503 (0.3 mg/kg, i.v.)): 3 mg/kg
- dose at which suppression of the leak point pressure increase was significant [2, 12]: 3 mg/kg

SMILES: CSc1cc2c(cc1C(F)(F)F)N(C(=O)Nc1cccnc1)CC2 [SB221284]
- suppression of the leak point pressure increasing action ([1]; against WAY-161503): suppressed the leak point pressure increasing action by WAY-161503 significantly
- leak point pressure after drug administration [1, 13]: 66.9 ± 9.8 cmH2O
- leak point pressure increase [1, 13]: 13.6 ± 3.8 cmH2O
- leak point pressure after drug administration [1, 14]: 46.8 ± 6.2 cmH2O
- leak point pressure increase [1, 14]: −3.6 ± 1.4 cmH2O
- leak point pressure before drug administration ([1]; antagonist 0.1 mg/kg, i.v. + WAY-161503 0.3 mg/kg): 53.3 ± 7.0 cmH2O
- leak point pressure before drug administration ([1]; antagonist 0.3 mg/kg, i.v. + WAY-161503 0.3 mg/kg): 50.4 ± 6.3 cmH2O
- leak point pressure after drug administration [2, 15]: 59.4 ± 3.9 cmH2O
- leak point pressure increase [2, 15]: 6.2 ± 3.1 cmH2O
- leak point pressure after drug administration [2, 16]: 60.7 ± 3.9 cmH2O
- leak point pressure increase [2, 16]: 0.4 ± 1.7 cmH2O
- leak point pressure after drug administration [2, 17]: 63.0 ± 2.0 cmH2O
- leak point pressure increase [2, 17]: −1.2 ± 2.2 cmH2O
- leak point pressure before drug administration ([2]; antagonist 0.1 mg/kg, i.v. + WAY-163909 0.3 mg/kg): 53.2 ± 3.4 cmH2O
- leak point pressure before drug administration ([2]; antagonist 0.3 mg/kg, i.v. + WAY-163909 0.3 mg/kg): 60.3 ± 4.0 cmH2O
- leak point pressure before drug administration [2, 17]: 64.2 ± 1.2 cmH2O
- suppression of the leak point pressure increase [2, 12]: significantly suppressed an increase in the leak point pressure by WAY-163909
